According to patent US9006250B2, “4-amino-6-(heterocyclic)picolinates and 6-amino-2-(heterocyclic)pyrimidine-4-carboxylates and their use as herbicides” (Dow AgroSciences, LLC, priority 2013, dated 2015):

Key:
[1] = tested on: TRZAS: wheat, spring (Triticum aestivum); assay: Post-Emergent Test II herbicidal activity; assay type: in vivo; details: post-emergence, 336 h, 14 days, read-out: Visual Growth Reduction (%) 14 Days After Application TRZAS; for pest or weed control at 35 g/ha: 35 g ai/ha; for pest or weed control at 70 g/ha: 70 g ai/ha; for pest or weed control at 140 g/ha: 140 g ai/ha
Procedure, shortened: (§1)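 Test species are sprayed post-emergence when they reach the first or second true leaf, using an aqueous acetone/DMSO spray with crop oil and surfactant delivered at 187 L/ha. Plants are kept in the greenhouse with subirrigation, and damage compared with untreated plants is rated visually at 14 d on a 0-100% scale.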

[2] = tested on: ECHCG: barnyardgrass (Echinochloa crus-galli); assay: Post-Emergent Test II herbicidal activity; assay type: in vivo; details: post-emergence, 336 h, 14 days, read-out: Visual Growth Reduction (%) 14 Days After Application ECHCG; for pest or weed control at 35 g/ha: 35 g ai/ha; for pest or weed control at 70 g/ha: 70 g ai/ha; for pest or weed control at 140 g/ha: 140 g ai/ha
Procedure, shortened: as §1

[3] = tested on: EPHHL: wild poinsettia (Euphorbia heterophylla); assay: Post-Emergent Test II herbicidal activity; assay type: in vivo; details: post-emergence, 336 h, 14 days, read-out: Visual Growth Reduction (%) 14 Days After Application EPHHL; for pest or weed control at 35 g/ha: 35 g ai/ha; for pest or weed control at 70 g/ha: 70 g ai/ha; for pest or weed control at 140 g/ha: 140 g ai/ha
Procedure, shortened: as §1

[4] = tested on: ZEAMX: maize, corn (Zea mays); assay: Post-Emergent Test II herbicidal activity; assay type: in vivo; details: post-emergence, 336 h, 14 days, read-out: Visual Growth Reduction (%) 14 Days After Application ZEAMX; for pest or weed control at 35 g/ha: 35 g ai/ha; for pest or weed control at 70 g/ha: 70 g ai/ha; for pest or weed control at 140 g/ha: 140 g ai/ha
Procedure, shortened: as §1

[5] = tested on: CHEAL: lambsquarters (Chenopodium album); assay: Post-Emergent Test II herbicidal activity; assay type: in vivo; details: post-emergence, 336 h, 14 days, read-out: Visual Growth Reduction (%) 14 Days After Application CHEAL; for pest or weed control at 35 g/ha: 35 g ai/ha; for pest or weed control at 70 g/ha: 70 g ai/ha; for pest or weed control at 140 g/ha: 140 g ai/ha
Procedure, shortened: as §1

[6] = tested on: AMARE: redroot pigweed (Amaranthus retroflexus); assay: Post-Emergent Test II herbicidal activity; assay type: in vivo; details: post-emergence, 336 h, 14 days, read-out: Visual Growth Reduction (%) 14 Days After Application AMARE; for pest or weed control at 35 g/ha: 35 g ai/ha; for pest or weed control at 70 g/ha: 70 g ai/ha; for pest or weed control at 140 g/ha: 140 g ai/ha
Procedure, shortened: as §1

[7] = tested on: ABUTH: velvetleaf (Abutilon theophrasti); assay: Post-Emergent Test II herbicidal activity; assay type: in vivo; details: post-emergence, 336 h, 14 days, read-out: Visual Growth Reduction (%) 14 Days After Application ABUTH; for pest or weed control at 35 g/ha: 35 g ai/ha; for pest or weed control at 70 g/ha: 70 g ai/ha; for pest or weed control at 140 g/ha: 140 g ai/ha
Procedure, shortened: as §1

[8] = tested on: HELAN: sunflower (Helianthus annuus); assay: Post-Emergent Test II herbicidal activity; assay type: in vivo; details: post-emergence, 336 h, 14 days, read-out: Visual Growth Reduction (%) 14 Days After Application HELAN; for pest or weed control at 35 g/ha: 35 g ai/ha; for pest or weed control at 70 g/ha: 70 g ai/ha; for pest or weed control at 140 g/ha: 140 g ai/ha
Procedure, shortened: as §1

[9] = tested on: ORYSA: rice (Oryza sativa); assay: Post-Emergent Test II herbicidal activity; assay type: in vivo; details: post-emergence, 336 h, 14 days, read-out: Visual Growth Reduction (%) 14 Days After Application ORYSA; for pest or weed control at 35 g/ha: 35 g ai/ha; for pest or weed control at 70 g/ha: 70 g ai/ha; for pest or weed control at 140 g/ha: 140 g ai/ha
Procedure, shortened: as §1

[10] = tested on: SETFA: giant foxtail (Setaria faberi); assay: Post-Emergent Test II herbicidal activity; assay type: in vivo; details: post-emergence, 336 h, 14 days, read-out: Visual Growth Reduction (%) 14 Days After Application SETFA; for pest or weed control at 35 g/ha: 35 g ai/ha; for pest or weed control at 70 g/ha: 70 g ai/ha; for pest or weed control at 140 g/ha: 140 g ai/ha
Procedure, shortened: as §1

[11] = tested on: CYPES: yellow nutsedge (Cyperus esculentus); assay: Post-Emergent Test II herbicidal activity; assay type: in vivo; details: post-emergence, 336 h, 14 days, read-out: Visual Growth Reduction (%) 14 Days After Application CYPES; for pest or weed control at 35 g/ha: 35 g ai/ha; for pest or weed control at 70 g/ha: 70 g ai/ha; for pest or weed control at 140 g/ha: 140 g ai/ha
Procedure, shortened: as §1

[12] = tested on: BRSNN: oilseed rape, canola (Brassica napus); assay: Post-Emergent Test II herbicidal activity; assay type: in vivo; details: post-emergence, 336 h, 14 days, read-out: Visual Growth Reduction (%) 14 Days After Application BRSNN; for pest or weed control at 35 g/ha: 35 g ai/ha; for pest or weed control at 70 g/ha: 70 g ai/ha; for pest or weed control at 140 g/ha: 140 g ai/ha
Procedure, shortened: as §1

SMILES | pest or weed control at 35 g/ha [1] [%] | pest or weed control at 70 g/ha [1] [%] | pest or weed control at 140 g/ha [1] [%] | pest or weed control at 35 g/ha [2] [%] | pest or weed control at 70 g/ha [2] [%] | pest or weed control at 140 g/ha [2] [%] | pest or weed control at 35 g/ha [3] [%] | pest or weed control at 70 g/ha [3] [%] | pest or weed control at 140 g/ha [3] [%] | pest or weed control at 35 g/ha [4] [%] | pest or weed control at 70 g/ha [4] [%] | pest or weed control at 140 g/ha [4] [%] | pest or weed control at 35 g/ha [5] [%] | pest or weed control at 70 g/ha [5] [%] | pest or weed control at 140 g/ha [5] [%] | pest or weed control at 35 g/ha [6] [%] | pest or weed control at 70 g/ha [6] [%] | pest or weed control at 140 g/ha [6] [%] | pest or weed control at 35 g/ha [7] [%] | pest or weed control at 70 g/ha [7] [%] | other results
COC(=O)c1nc(-c2cc3nsnc3cc2F)cc(N)c1Cl [Compound 13] | 0 to 29 | 0 to 29 | 0 to 29 | 75 to 84 | 85 to 94 | 85 to 94 | 95 to 100 | 95 to 100 | 95 to 100 | 60 to 74 | 75 to 84 | 85 to 94 | 85 to 94 | 95 to 100 | 95 to 100 | 95 to 100 | 95 to 100 | 95 to 100 | 75 to 84 | 85 to 94 | pest or weed control at 140 g/ha [7]: 85 to 94%; pest or weed control at 35 g/ha [8]: 30 to 44%; pest or weed control at 70 g/ha [8]: 60 to 74%; pest or weed control at 140 g/ha [8]: 75 to 84%; pest or weed control at 35 g/ha [9]: 0 to 29%; pest or weed control at 70 g/ha [9]: 30 to 44%; pest or weed control at 140 g/ha [9]: 30 to 44%; pest or weed control at 35 g/ha [10]: 60 to 74%; pest or weed control at 70 g/ha [10]: 60 to 74%; pest or weed control at 140 g/ha [10]: 85 to 94%; pest or weed control at 35 g/ha [11]: 0 to 29%; pest or weed control at 70 g/ha [11]: 0 to 29%; pest or weed control at 140 g/ha [11]: 30 to 44%; pest or weed control at 35 g/ha [12]: 95 to 100%; pest or weed control at 70 g/ha [12]: 95 to 100%; pest or weed control at 140 g/ha [12]: 95 to 100%; melting point: 218 to 220 °C
COC(=O)c1nc(-c2cc3nonc3cc2F)c(F)c(N)c1Cl [Compound 3, Methyl 4-amino-3-chloro-5-fluoro-6-(6-fluorobenzo[c][1,2,5]oxadiazol-5-yl)picolinate] | 45 to 59 | 45 to 59 | 60 to 74 | 95 to 100 | 95 to 100 | 75 to 84 | 45 to 59 | 45 to 59 | 60 to 74 | 60 to 74 | 60 to 74 | 75 to 84 | 85 to 94 | 85 to 94 | 85 to 94 | 95 to 100 | 95 to 100 | 95 to 100 | 45 to 59 | 0 to 29 | pest or weed control at 140 g/ha [7]: 0 to 29%; pest or weed control at 35 g/ha [8]: 85 to 94%; pest or weed control at 70 g/ha [8]: 85 to 94%; pest or weed control at 140 g/ha [8]: 95 to 100%; pest or weed control at 35 g/ha [9]: 0 to 29%; pest or weed control at 70 g/ha [9]: 0 to 29%; pest or weed control at 140 g/ha [9]: 0 to 29%; pest or weed control at 35 g/ha [10]: 45 to 59%; pest or weed control at 70 g/ha [10]: 45 to 59%; pest or weed control at 140 g/ha [10]: 45 to 59%; pest or weed control at 35 g/ha [11]: 60 to 74%; pest or weed control at 70 g/ha [11]: 95 to 100%; pest or weed control at 140 g/ha [11]: 95 to 100%; pest or weed control at 35 g/ha [12]: 85 to 94%; pest or weed control at 70 g/ha [12]: 85 to 94%; pest or weed control at 140 g/ha [12]: 95 to 100%; melting point: 180 to 182 °C
COC(=O)c1nc(-c2cc3nonc3cc2Cl)cc(N)c1Cl [Compound 8] | 0 to 29 | 0 to 29 | 0 to 29 | 0 to 29 | 0 to 29 | 0 to 29 | 0 to 29 | 0 to 29 | 0 to 29 | 0 to 29 | 0 to 29 | 0 to 29 | 0 to 29 | 0 to 29 | 0 to 29 | 0 to 29 | 0 to 29 | 0 to 29 | 0 to 29 | 0 to 29 | pest or weed control at 140 g/ha [7]: 0 to 29%; pest or weed control at 35 g/ha [8]: 0 to 29%; pest or weed control at 70 g/ha [8]: 0 to 29%; pest or weed control at 140 g/ha [8]: 0 to 29%; pest or weed control at 35 g/ha [9]: 0 to 29%; pest or weed control at 70 g/ha [9]: 0 to 29%; pest or weed control at 140 g/ha [9]: 0 to 29%; pest or weed control at 35 g/ha [10]: 0 to 29%; pest or weed control at 70 g/ha [10]: 0 to 29%; pest or weed control at 140 g/ha [10]: 0 to 29%; pest or weed control at 35 g/ha [11]: 0 to 29%; pest or weed control at 70 g/ha [11]: 0 to 29%; pest or weed control at 140 g/ha [11]: 0 to 29%; pest or weed control at 35 g/ha [12]: 0 to 29%; pest or weed control at 70 g/ha [12]: 0 to 29%; pest or weed control at 140 g/ha [12]: 30 to 44%; melting point: 224 to 226 °C
